Assay results: ChEMBL document CHEMBL4130444, “1,4-Naphthoquinones as inhibitors of Itch, a HECT domain-E3 ligase, and tumor growth suppressors in multiple myeloma” (Eur J Med Chem, 2017)
Activity calls are given as the source filed them. No cut-off for these calls is given here.

Assays:
[1] = species on record: Homo sapiens; test: Inhibition of UBE1/UbcH4/SCFbTrCP1/b-catenin (unknown origin) assessed as protein activity at […] by electrochemiluminescence based ubiquitin profiler panel assay; set-up: scale not given: the % may be the effect or the level left
[2] = tested on: Hep 3B2; test: Antiproliferative activity against human Hep3B cells incubated for 48 hrs by SRB assay; format: functional
[3] = tested on: RPMI-8226; test: Antitumor activity against human RPMI8226 cells xenografted in SCID nude mouse assessed as inhibition of tumor growth at 25 mg/kg, po dosed daily for 45 days; format: functional; details: RPMI-8226, po, 1080 h, read-out: TGI
[4] = target: E3 ubiquitin-protein ligase Itchy homolog (Homo sapiens) (UniProt Q96J02); test: Inhibition of Itch (unknown origin) assessed as reduction in Itch-mediated ubiquitination in presence of E1 enzyme, E2 enzyme and ATP incubated for 20 mins by SDS-PAGE method
[5] = tested on: HCT-116; test: Antiproliferative activity against human HCT116 cells incubated for 48 hrs by SRB assay; format: functional; details: HCT-116, 48 h
[6] = tested on: A549; test: Antiproliferative activity against human A549 cells incubated for 48 hrs by SRB assay; format: functional; details: A549, 48 h
[7] = tested on: Mus musculus; test: Toxicity in human RPMI8226 cells xenografted SCID nude mouse assessed as effect on body weight at 25 mg/kg, po dosed daily for 45 days; format: organism-based; details: in vivo, 1080 h
[8] = species on record: Homo sapiens; test: Inhibition of UBE1/UbcH3/SCFSkp2/Cks1/p27 (unknown origin) assessed as protein activity at […] by electrochemiluminescence based ubiquitin profiler panel assay; set-up: scale not given: the % may be the effect or the level left
[9] = Antiproliferative activity against human 33HJ-JA1 cells incubated for 48 hrs by SRB assay; format: functional
[10] = tested on: A498; test: Antiproliferative activity against human A498 cells incubated for 48 hrs by SRB assay; format: functional; details: A498, 48 h
[11] = species on record: Homo sapiens; test: Inhibition of UBE1/UbcH13/Uev1A/CHIP/p53 (unknown origin) assessed as protein activity at […] by electrochemiluminescence based ubiquitin profiler panel assay; set-up: scale not given: the % may be the effect or the level left
[12] = species on record: Homo sapiens; test: Inhibition of UBE1/UbcH13/Uev1A/CHIP/CHIP(Auto) (unknown origin) assessed as protein activity at […] by electrochemiluminescence based ubiquitin profiler panel assay; set-up: scale not given: the % may be the effect or the level left
[13] = species on record: Homo sapiens; test: Inhibition of UBE1/UbcH4/MDM2/CK1d/p53 (unknown origin) assessed as protein activity at […] by electrochemiluminescence based ubiquitin profiler panel assay; set-up: scale not given: the % may be the effect or the level left
[14] = species on record: Homo sapiens; test: Inhibition of UBE1/UbcH5a/SCFFbw7/Cyclin E1 (unknown origin) assessed as protein activity at […] by electrochemiluminescence based ubiquitin profiler panel assay; set-up: scale not given: the % may be the effect or the level left
[15] = tested on: PC-3; test: Antiproliferative activity against human PC3 cells incubated for 48 hrs by SRB assay; format: functional; details: PC-3, 48 h
[16] = tested on: MDA-MB-231; test: Antiproliferative activity against human MDA-MB-231 cells incubated for 48 hrs by SRB assay; format: functional; details: MDA-MB-231, 48 h
[17] = tested on: KATO III stomach cancer cell line; test: Antiproliferative activity against human KATO III cells incubated for 48 hrs by SRB assay; format: functional
[18] = tested on: NCI-H460; test: Antiproliferative activity against human NCI-H460 cells incubated for 48 hrs by SRB assay; format: functional; details: NCI-H460, 48 h
[19] = tested on: OVCAR-4; test: Antiproliferative activity against human OVCAR4 cells incubated for 48 hrs by SRB assay; format: functional; details: OVCAR-4, 48 h
[20] = species on record: Homo sapiens; test: Inhibition of UBE1/UbcH3/SCFbTrCP1/b-catenin (unknown origin) assessed as protein activity at […] by electrochemiluminescence based ubiquitin profiler panel assay; set-up: scale not given: the % may be the effect or the level left
[21] = tested on: MOLT-4; test: Antiproliferative activity against human MOLT4 cells incubated for 48 hrs by SRB assay; format: functional; details: MOLT-4, 48 h
[22] = tested on: HepG2; test: Antiproliferative activity against human HepG2 cells incubated for 48 hrs by SRB assay; format: functional; details: HepG2, 48 h
[23] = tested on: ACHN; test: Antiproliferative activity against human ACHN cells incubated for 48 hrs by SRB assay; format: functional
[24] = species on record: Homo sapiens; test: Inhibition of UBE1/UbcH4/SCFbTrCP1/IkBa (unknown origin) assessed as protein activity at […] by electrochemiluminescence based ubiquitin profiler panel assay; set-up: scale not given: the % may be the effect or the level left
[25] = species on record: Homo sapiens; test: Inhibition of UBE1/UbcH4/MDM2/MDM2(Auto) (unknown origin) assessed as protein activity at […] by electrochemiluminescence based ubiquitin profiler panel assay; set-up: scale not given: the % may be the effect or the level left
[26] = tested on: Mus musculus; test: Toxicity in human RPMI8226 cells xenografted SCID nude mouse assessed as induction of adverse events at 50 mg/kg, po dosed daily for 45 days; format: organism-based; details: in vivo, 1080 h
[27] = species on record: Homo sapiens; test: Inhibition of UBE1/UbcH3/SCFFbw7/Cyclin E1 (unknown origin) assessed as protein activity at […] by electrochemiluminescence based ubiquitin profiler panel assay; set-up: scale not given: the % may be the effect or the level left
[28] = tested on: RPMI-8226; test: Antiproliferative activity against human RPMI8226 cells incubated for 48 hrs by SRB assay; format: functional, cell-based; details: RPMI-8226, 48 h
[29] = tested on: RPMI-8226; test: Reduction of Itch protein expression in human RPMI8226 cells at 10 uM by Western blot; format: functional, cell-based
[30] = tested on: MCF7; test: Antiproliferative activity against human MCF7 cells incubated for 48 hrs by SRB assay; format: functional; details: MCF7, 48 h
[31] = species on record: Homo sapiens; test: Inhibition of UBE1/UbcH7/Parkin/Parkin(Auto) (unknown origin) assessed as protein activity at […] by electrochemiluminescence based ubiquitin profiler panel assay; set-up: scale not given: the % may be the effect or the level left
[32] = Antiproliferative activity against HUVEC incubated for 48 hrs by SRB assay; format: cell-based; details: human, HUVEC cells
[33] = tested on: A-431; test: Antiproliferative activity against human A431 cells incubated for 48 hrs by SRB assay; format: functional; details: A-431, 48 h
[34] = tested on: ASPC1; test: Antiproliferative activity against human AsPC1 cells incubated for 48 hrs by SRB assay; format: functional; details: ASPC1, 48 h
[35] = species on record: Homo sapiens; test: Inhibition of UBE1/UbcH13/Uev1A/CHIP/Hsp70 (unknown origin) assessed as protein activity at […] by electrochemiluminescence based ubiquitin profiler panel assay; set-up: scale not given: the % may be the effect or the level left
[36] = tested on: PC-6; test: Antiproliferative activity against human PC6 cells incubated for 48 hrs by SRB assay; format: functional; details: PC-6, 48 h
[37] = Antiproliferative activity against human hepatocytes incubated for 48 hrs by SRB assay; format: cell-based, Hepatocyte
[38] = species on record: Homo sapiens; test: Inhibition of UBE1/UbcH6/Parkin/Parkin(Auto) (unknown origin) assessed as protein activity at […] by electrochemiluminescence based ubiquitin profiler panel assay; set-up: scale not given: the % may be the effect or the level left
[39] = species on record: Homo sapiens; test: Inhibition of UBE1/UbcH5a/VHL/HIF-1a (unknown origin) assessed as protein activity at […] by electrochemiluminescence based ubiquitin profiler panel assay; set-up: scale not given: the % may be the effect or the level left
[40] = tested on: OVCAR-3; test: Antiproliferative activity against human OVCAR3 cells incubated for 48 hrs by SRB assay; format: functional; details: OVCAR-3, 48 h
[41] = tested on: Ramos; test: Antiproliferative activity against human Ramos cells incubated for 48 hrs by SRB assay; format: functional
[42] = species on record: Homo sapiens; test: Inhibition of UBE1/UbcH3/SCFbTrCP1/IkBa (unknown origin) assessed as protein activity at […] by electrochemiluminescence based ubiquitin profiler panel assay; set-up: scale not given: the % may be the effect or the level left

E3 ubiquitin-protein ligase Itchy homolog (Homo sapiens), sequence (Q96J02 whole entry): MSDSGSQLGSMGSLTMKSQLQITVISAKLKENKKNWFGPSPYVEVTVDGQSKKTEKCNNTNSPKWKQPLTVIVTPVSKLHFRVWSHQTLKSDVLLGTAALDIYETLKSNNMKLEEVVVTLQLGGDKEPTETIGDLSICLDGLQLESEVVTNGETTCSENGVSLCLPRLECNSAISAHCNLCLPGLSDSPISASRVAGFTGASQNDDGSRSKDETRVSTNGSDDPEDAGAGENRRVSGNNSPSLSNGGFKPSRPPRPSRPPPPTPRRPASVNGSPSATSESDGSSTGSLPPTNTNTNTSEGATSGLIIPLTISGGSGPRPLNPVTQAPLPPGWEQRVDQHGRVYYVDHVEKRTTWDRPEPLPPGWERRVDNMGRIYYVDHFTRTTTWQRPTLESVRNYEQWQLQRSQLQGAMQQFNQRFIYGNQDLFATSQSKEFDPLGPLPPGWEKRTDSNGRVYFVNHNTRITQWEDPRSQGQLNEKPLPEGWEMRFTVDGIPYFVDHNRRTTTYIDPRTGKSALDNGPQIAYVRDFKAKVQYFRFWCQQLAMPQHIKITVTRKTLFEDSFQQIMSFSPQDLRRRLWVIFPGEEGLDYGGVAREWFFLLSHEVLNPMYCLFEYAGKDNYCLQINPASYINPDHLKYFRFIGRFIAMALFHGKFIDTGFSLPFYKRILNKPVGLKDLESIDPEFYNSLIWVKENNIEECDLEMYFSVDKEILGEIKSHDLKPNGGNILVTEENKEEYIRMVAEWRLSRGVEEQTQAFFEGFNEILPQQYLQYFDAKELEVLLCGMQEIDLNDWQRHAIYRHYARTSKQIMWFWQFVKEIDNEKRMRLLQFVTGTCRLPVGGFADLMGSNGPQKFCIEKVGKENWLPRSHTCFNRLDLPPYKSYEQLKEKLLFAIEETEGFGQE

Question: With `O=C(Nc1ccncc1)c1ccc(CNC2=C(Cl)C(=O)c3ccccc3C2=O)cc1` as the compound, how does the Activity [1] read?
Answer: 68%

Question: What about the GI50 [2] of the same compound?
Answer: 1400 nM

Question: What about the inhibition in vivo at 25 mg/kg [3] of the same compound?
Answer: 98.3%

Question: And the inhibition [4]?
Answer: Dose-dependent effect

Question: And the GI50 [5]?
Answer: 4300 nM

Question: And the GI50 [6]?
Answer: > 5000 nM

Question: And the Activity [7]?
Answer: Non-Toxic

Question: What about the Activity [8] of the same compound?
Answer: 85%

Question: And the GI50 [9]?
Answer: 1900 nM

Question: What about the GI50 [10] of the same compound?
Answer: 3500 nM

Question: What about the Activity [11] of the same compound?
Answer: 52%

Question: What about the Activity [12] of the same compound?
Answer: 65%

Question: And the Activity [13]?
Answer: 71%

Question: And the Activity [14]?
Answer: 100%

Question: And the GI50 [15]?
Answer: 2500 nM

Question: What about the GI50 [16] of the same compound?
Answer: 2900 nM

Question: What about the GI50 [17] of the same compound?
Answer: 2400 nM

Question: What about the GI50 [18] of the same compound?
Answer: 2900 nM

Question: What about the GI50 [19] of the same compound?
Answer: 1400 nM

Question: What about the Activity [20] of the same compound?
Answer: 101%

Question: What about the GI50 [21] of the same compound?
Answer: 4000 nM

Question: And the GI50 [22]?
Answer: 3600 nM

Question: What about the GI50 [23] of the same compound?
Answer: 2700 nM

Question: And the Activity [24]?
Answer: 91%

Question: And the Activity [25]?
Answer: 92%

Question: What about the Activity [26] of the same compound?
Answer: Non-Toxic

Question: And the Activity [27]?
Answer: 104%

Question: What about the IC50 [28] of the same compound?
Answer: 2600 nM

Question: And the Activity [29]?
Answer: Active

Question: And the GI50 [30]?
Answer: 900 nM

Question: And the Activity [31]?
Answer: 65%

Question: What about the GI50 at 48 h [32] of the same compound?
Answer: 16000 nM

Question: And the GI50 [33]?
Answer: 1200 nM

Question: What about the GI50 [34] of the same compound?
Answer: 4600 nM

Question: What about the Activity [35] of the same compound?
Answer: 93%

Question: What about the GI50 [36] of the same compound?
Answer: 1800 nM

Question: What about the GI50 at 48 h [37] of the same compound?
Answer: 30000 nM

Question: And the Activity [38]?
Answer: 61%

Question: What about the Activity [39] of the same compound?
Answer: 95%

Question: What about the GI50 [40] of the same compound?
Answer: 1900 nM

Question: And the GI50 [41]?
Answer: 890 nM

Question: And the Activity [42]?
Answer: 102%
